From US11712438B2, “Phenyl derivatives as PGE2 receptor modulators” (IDORSIA PHARMACEUTICALS LTD, priority 2017, dated 2023) come the findings set out here.

Targets include EP4 (Homo sapiens, UniProt P35408); EP2 (Homo sapiens, UniProt P43116); PTRGER4 (EP4) (Homo sapiens, UniProt P35408); PTGER2 (EP2) (Homo sapiens, UniProt P43116).
Assay in all cases: cell-based

Sequence of PTRGER4 (EP4) (P35408 whole entry): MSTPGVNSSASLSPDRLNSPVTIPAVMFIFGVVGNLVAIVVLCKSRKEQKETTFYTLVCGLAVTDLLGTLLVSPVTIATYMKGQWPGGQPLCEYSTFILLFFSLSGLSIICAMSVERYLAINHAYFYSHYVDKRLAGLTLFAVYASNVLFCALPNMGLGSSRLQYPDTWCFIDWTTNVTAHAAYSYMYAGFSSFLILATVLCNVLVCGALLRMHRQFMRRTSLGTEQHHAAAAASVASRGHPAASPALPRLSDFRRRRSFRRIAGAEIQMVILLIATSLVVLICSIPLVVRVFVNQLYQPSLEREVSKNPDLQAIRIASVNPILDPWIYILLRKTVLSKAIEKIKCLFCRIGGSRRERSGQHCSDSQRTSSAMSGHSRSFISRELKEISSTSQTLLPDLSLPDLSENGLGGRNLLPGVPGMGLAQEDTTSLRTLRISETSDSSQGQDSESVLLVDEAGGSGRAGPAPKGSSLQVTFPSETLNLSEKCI
Sequence of EP4 (P35408 whole entry): as above
Sequence of PTGER2 (EP2) (P43116 whole entry): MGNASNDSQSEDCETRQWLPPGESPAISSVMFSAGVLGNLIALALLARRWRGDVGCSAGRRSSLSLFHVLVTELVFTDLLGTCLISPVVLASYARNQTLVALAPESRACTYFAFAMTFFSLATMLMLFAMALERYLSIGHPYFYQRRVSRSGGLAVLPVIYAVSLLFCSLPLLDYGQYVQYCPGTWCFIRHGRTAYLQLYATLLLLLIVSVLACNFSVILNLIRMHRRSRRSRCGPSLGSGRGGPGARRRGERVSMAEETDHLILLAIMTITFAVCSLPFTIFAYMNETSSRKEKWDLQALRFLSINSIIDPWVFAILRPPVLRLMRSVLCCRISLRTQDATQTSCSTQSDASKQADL
Sequence of EP2 (P43116 whole entry): as above

As usually defined, the IC50 is the concentration that inhibits the measured activity by half. Read a low IC50 as greater potency. `CCOc1cc(-c2cc(NCCc3c(F)ccc(Cl)c3F)ncn2)sc1-c1noc(=O)[nH]1` [Example 98, 3-(5-{6-[2-(3-Chloro-2,6-difluoro-phenyl)-ethylamino]-pyrimidin-4-yl}-3-ethoxy-thiophen-2yl)-[1,2,4]oxadiazol-5(4H)-one]: the IC50 was 0.05 µM on EP4, 0.083 µM against EP2, 0.014 µM against PTRGER4 (EP4) and 0.053 µM at PTGER2 (EP2).
For `CCOc1cc(-c2cc(NCCc3c(F)cc(Br)cc3F)ncn2)ccc1-c1cc(O)no1` [Example 273, 5-(4-{6-[2-(4-Bromo-2,6-difluoro-phenyl)-ethylamino]-pyrimidin-4-yl}-2-ethoxy-phenyl)-isoxazol-3-ol], the IC50 worked out at 0.211 µM against EP4, 0.364 µM against EP2, 0.056 µM against PTRGER4 (EP4) and 0.045 µM at PTGER2 (EP2).
In the same order, the values of `CCOc1cc(-c2cc(NCCc3ccc(C)c(C)c3)ncn2)sc1C(=O)O` [Example 68, 5-{6-[2-(3,4-Dimethyl-phenyl)-ethylamino]-pyrimidin-4-yl}-3-ethoxy-thiophene-2-carboxylic acid] are 0.025 µM, 0.165 µM, 0.033 µM and 0.145 µM.
In the same order, the values of `CCOc1cc(-c2cc(NCCc3cc(Br)ccc3OC)ncn2)sc1C(=O)O` [Example 71, 5-{6-[2-(5-Bromo-2-methoxy-phenyl)-ethylamino]-pyrimidin-4-yl}-3-ethoxy-thiophene-2-carboxylic acid] are 0.053 µM, 0.07 µM, 0.1 µM and 0.085 µM.
`CCOc1cc(-c2cc(NCCc3c(F)cc(Cl)cc3OC)ncn2)sc1-c1noc(=O)[nH]1` [Example 86, 3-(5-{6-[2-(4-Chloro-2-fluoro-6-methoxy-phenyl)-ethylamino]-pyrimidin-4-yl}-3-ethoxy-thiophen-2yl)-[1,2,4]oxadiazol-5(4H)-one]: the IC50 on EP4 was determined as 0.089 µM; against EP2 it was 0.084 µM; against PTRGER4 (EP4) it was 0.03 µM; on PTGER2 (EP2) it was 0.016 µM.
On to `CCOc1cc(-c2cc(NCCc3c(F)cc(Br)cc3F)ncn2)sc1-c1noc(=O)[nH]1` [Example 110, 3-(5-{6-[2-(4-Bromo-2,6-difluoro-phenyl)-ethylamino]-pyrimidin-4-yl}-3-ethoxy-thiophen-2yl)-[1,2,4]oxadiazol-5(4H)-one], for which the IC50 turned out to be 0.003 µM against EP4, 0.009 µM at EP2, 0.002 µM at PTRGER4 (EP4) and 0.006 µM on PTGER2 (EP2).
On to `Cc1cc(-c2cc(NCCc3c(F)cc(Br)cc3F)ncn2)sc1C(=O)O` [Example 28, 5-{6-[2-(4-Bromo-2,6-difluoro-phenyl)-ethylamino]-pyrimidin-4-yl}-3-methyl-thiophene-2-carboxylic acid], for which the IC50 against EP4 stood at 0.041 µM; against EP2, 0.041 µM; against PTRGER4 (EP4), 0.08 µM; against PTGER2 (EP2), 0.049 µM.
Regarding `CCOc1cc(-c2cc(NCCc3ccc(Br)cc3F)ncn2)ccc1C(=O)O` [Example 21, 4-{6-[2-(4-Bromo-2-fluoro-phenyl)-ethylamino]-pyrimidin-4-yl}-2-ethoxy-benzoic acid], the IC50 against EP4 was 0.08 µM; against EP2, 0.193 µM; against PTRGER4 (EP4), 0.779 µM; at PTGER2 (EP2), 0.248 µM.
On to `CCOc1cc(-c2cc(NCCc3c(F)cc(Br)cc3F)ncn2)sc1CC(=O)O` [Example 48, (5-{6-[2-(4-Bromo-2,6-difluoro-phenyl)-ethylamino]-pyrimidin-4-yl}-3-ethoxy-thiophen-2-yl)-acetic acid], for which the IC50 amounted to 0.051 µM on EP4, 0.046 µM at EP2, 0.025 µM against PTRGER4 (EP4) and 0.028 µM on PTGER2 (EP2).
In the case of `CCOc1cc(-c2cc(NCCc3ccccc3F)ncn2)sc1C(=O)O` [Example 56, 3-Ethoxy-5-{6-[2-(2-fluoro-phenyl)-ethylamino]-pyrimidin-4-yl}-thiophene-2-carboxylic acid], the IC50 stood at 0.775 µM against EP4, 0.512 µM at EP2, 3.03 µM against PTRGER4 (EP4) and 0.717 µM against PTGER2 (EP2).
For the compound `CCOc1cc(-c2cc(NCCc3cccc(C(=O)OC)c3)ncn2)sc1C(=O)O` [Example 76, 3-Ethoxy-5-{6-[2-(3-methoxycarbonyl-phenyl)-ethylamino]-pyrimidin-4-yl}-thiophene-2-carboxylic acid], the IC50 on EP4 worked out at 0.088 µM; on EP2 it was 0.234 µM; against PTRGER4 (EP4) it was 0.31 µM; against PTGER2 (EP2), 0.488 µM.
In the case of `CCc1nc(-c2cc(NCCc3c(F)cc(Br)cc3F)ncn2)sc1-c1noc(=O)[nH]1` [Example 151, 3-(2-{6-[2-(4-Bromo-2,6-difluoro-phenyl)-ethylamino]-pyrimidin-4-yl}-4-ethyl-thiazol-5-yl)-[1,2,4]oxadiazol-5(4H)-one], the IC50 against EP4 stood at 0.029 µM; at EP2, 0.043 µM; against PTRGER4 (EP4) it was 0.003 µM; against PTGER2 (EP2), 0.069 µM.
The matching figures for `CCOc1cc(-c2cc(NCCc3c(F)cc(Br)cc3OC)ncn2)sc1-c1noc(=O)[nH]1` [Example 87, 3-(5-{6-[2-(4-Bromo-2-fluoro-6-methoxy-phenyl)-ethylamino]-pyrimidin-4-yl}-3-ethoxy-thiophen-2yl)-[1,2,4]oxadiazol-5(4H)-one]: 0.017 µM, 0.028 µM, 0.005 µM and 0.011 µM.
In the same order, the values of `CCOc1cc(-c2cc(NCCc3c(F)cc(Br)cc3F)ncn2)sc1CCC(=O)O` [Example 44, 3-(5-{6-[2-(4-Bromo-2,6-difluoro-phenyl)-ethylamino]-pyrimidin-4-yl}-3-ethoxy-thiophen-2yl)-propionic acid] are 0.038 µM, 0.12 µM, 0.062 µM and 0.044 µM.
`CCc1cc(-c2cc(NCCc3c(F)cc(Br)cc3F)ncn2)sc1C(=O)O` [Example 29, 5-{6-[2-(4-Bromo-2,6-difluoro-phenyl)-ethylamino]-pyrimidin-4-yl}-3-ethyl-thiophene-2-carboxylic acid]: the IC50 against EP4 stood at 0.012 µM; at EP2, 0.023 µM; at PTRGER4 (EP4), 0.02 µM; on PTGER2 (EP2), 0.029 µM.
In the same order, the values of `CCOc1c(C(=O)O)sc(-c2cc(NCCc3c(F)cc(Br)cc3F)ncn2)c1Cl` [Example 27, 5-{6-[2-(4-Bromo-2,6-difluoro-phenyl)-ethylamino]-pyrimidin-4-yl}-4-chloro-3-ethoxy-thiophene-2-carboxylic acid] are 0.097 µM, 0.05 µM, 0.168 µM and 0.023 µM.
As for `CC(C)Cc1cc(-c2cc(NCCc3c(F)cc(Br)cc3F)ncn2)ccc1C(=O)O` [Example 38, 4-{6-[2-(4-Bromo-2,6-difluoro-phenyl)-ethylamino]-pyrimidin-4-yl}-2-isobutyl-benzoic acid], the IC50 stood at 0.081 µM on EP4, 0.128 µM against EP2, 0.202 µM against PTRGER4 (EP4) and 0.277 µM against PTGER2 (EP2).
Regarding `CCOc1cc(-c2cc(NCCc3c(C)cc(C)cc3OC)ncn2)sc1C(=O)O` [Example 203, 3-Ethoxy-5-{6-[2-(2-methoxy-4,6-dimethyl-phenyl)-ethylamino]-pyrimidin-4-yl}-thiophene-2-carboxylic acid], the IC50 on EP4 amounted to 0.011 µM; at EP2 it was 0.027 µM; against PTRGER4 (EP4), 0.092 µM; on PTGER2 (EP2), 0.081 µM.
The matching figures for `CCOc1cc(-c2cc(NCCc3c(F)cc(Br)cc3F)ncn2)sc1-n1nn[nH]c1=O` [Example 294, 1-(5-{6-[2-(4-Bromo-2,6-difluoro-phenyl)-ethylamino]-pyrimidin-4-yl}-3-ethoxy-thiophen-2-yl)-1,4-dihydro-tetrazol-5-one]: 0.022 µM, 0.047 µM, 0.018 µM and 0.027 µM.
The matching figures for `CCOc1cc(-c2cc(NCCc3ccc(Cl)cc3Cl)ncn2)sc1C(=O)O` [Example 66, 5-{6-[2-(2,4-Dichloro-phenyl)-ethylamino]-pyrimidin-4-yl}-3-ethoxy-thiophene-2-carboxylic acid]: 0.053 µM, 0.027 µM, 0.133 µM and 0.016 µM.
Regarding `COc1cc(-c2noc(=O)[nH]2)ccc1-c1cc(NCCc2c(F)cc(Br)cc2F)ncn1` [Example 291, 3-(4-{6-[2-(4-Bromo-2,6-difluoro-phenyl)-ethylamino]-pyrimidin-4-yl}-3-methoxy-phenyl)-[1,2,4]oxadiazol-5(4H)-one], the IC50 is 0.154 µM at EP4, 0.774 µM at EP2, 0.077 µM against PTRGER4 (EP4) and 0.088 µM at PTGER2 (EP2).
In the same order, the values of `CCOc1cc(-c2cc(NCCc3ccc(Cl)cc3)ncn2)sc1C(=O)O` [Example 82, 5-{6-[2-(4-Chloro-phenyl)-ethylamino]-pyrimidin-4-yl}-3-ethoxy-thiophene-2-carboxylic acid] are 0.046 µM, 0.066 µM, 0.103 µM and 0.074 µM.
The matching figures for `CCOc1cc(-c2cc(NCCc3c(C)cccc3OC)ncn2)sc1C(=O)O` [Example 178, 3-Ethoxy-5-{6-[2-(2-methoxy-6-methyl-phenyl)-ethylamino]-pyrimidin-4-yl}-thiophene-2-carboxylic acid]: 0.134 µM, 0.01 µM, 0.404 µM and 0.029 µM.
The matching figures for `CCCc1cc(-c2cc(NCCc3c(F)cc(Br)cc3F)ncn2)cc(F)c1C(=O)O` [Example 39, 4-{6-[2-(4-Bromo-2,6-difluoro-phenyl)-ethylamino]-pyrimidin-4-yl}-2-fluoro-6-propyl-benzoic acid]: 0.697 µM, 0.164 µM, 0.349 µM and 0.122 µM.
